These results are taken from US20090311344A1, “Dosing Regimen” (priority 2008, published 2009).

Test [1] relates to platelets, reticulocytes, hematocrit. Description: CBC analysis and reticulocyte counts in HT-29 tumor-bearing mice (Groups 6-9). Format: in vivo, athymic nude mice. To be noted: for mean reticulocyte values: Group 7. Here is the method: Five groups (n=10) of female athymic nude mice (Harlan) bearing established (˜100 mm^3) HT-29 human colon carcinomas on Day 1. Groups 6-9 (n=20) were included for blood sampling and received the same treatment as Groups 1-4, respectively. Treatment effects on the growth of tumors were evaluated by tumor growth delay (TGD), which is the difference between median time to endpoint (TTE) tumor size in a treatment group compared to a control group. […]
(§1) Group 1 mice (n=10) were untreated tumor growth controls. Group 2 mice (n=10) received 60 mg/kg carboplatin administered intraperitoneally (i.p.) on Days 1, 2, 12, and 13. Group 3 mice (n=10) received 0.2 mg/kg of the TPO mimetic peptide compound administered intravenously (i.v.) via tail vein on Days 2 and 13. Groups 4 and 5 received the combination of carboplatin (60 mg/kg i.p. on Days 1, 2, 12, and 13) and 0.2 mg/kg of the TPO mimetic peptide compound on Days 2, 13 and Days 2, 13, 23, respectively, administered intravenously (i.v.) one hour after carboplatin dosing. Groups 6-9 (n=20 each) were included for blood sampling and received the same treatments as Groups 1-4, respectively. For all groups, each dose of drug was given in a volume of 0.2 mL per 20 g of body weight (10 mL/kg), and was scaled to the body weight of each animal.
[…] Blood was collected into EDTA tubes, and complete blood counts (CBC) with differential were determined using a Cell-Dyn® 3700 System (Abbott Diagnostics) for automated hematology analyses. Reticulocyte values were determined. In addition, for Groups 1-5, five animals per group were euthanized at or just after endpoint by terminal cardiac puncture under CO2 anesthesia, and gross necropsies were performed. Blood samples were collected into EDTA tubes, and CBC with differential and reticulocyte values were performed as previously described. All other animals in Groups 1-5 were euthanized at endpoint without sampling.

The test system of test [2] is HT-29 human colon carcinoma xenografts. As to the kind of experiment: HT-29 human colon carcinoma xenografts in athymic nude mice: tumor growth delay. The class given is in vivo.
From the text: Administration of the TPO Mimetic Peptide Compound One Hour After Administration of Carboplatin. Effect on activity and toxicity of carboplatin against HT-29 human colon carcinoma xenografts established in athymic nude mice.
Five groups (n=10) of female athymic nude mice (Harlan) bearing established (˜100 mm^3) HT-29 human colon carcinomas on Day 1. Groups 6-9 (n=20) were included for blood sampling and received the same treatment as Groups 1-4, respectively. Treatment effects on the growth of tumors were evaluated by tumor growth delay (TGD), which is the difference between median time to endpoint (TTE) tumor size in a treatment group compared to a control group. The effect of these treatments on platelet and erythrocyte precursors was determined from CBC analysis and reticulocyte counts of blood samples taken on Days 10, 13, 21 and 24.
Xenografts were initiated from HT-29 human colon carcinoma xenografts maintained in athymic nude mice. HT-29 tumor fragments (1 mm^3) were implanted subcutaneously into the right flank of each test mouse, and tumor growth was monitored. On Day 1 of the study, the animals were pair-matched into five groups (Groups 1-5) for evaluation of efficacy and four groups for sampling (Groups 6-9). Groups 1-5 each consisted of ten animals with tumor sizes ranging from 75-126 mm^3 and group mean tumor sizes of 99 mm^3. Groups 6-9 each consisted of twenty animals with tumor sizes ranging from 40-221 mm^3 and group mean tumor sizes of 84 mm^3. Tumor weight was estimated with the assumption that 1 mg is equivalent to 1 mm^3 of tumor volume. Volume was calculated using the formula:
as §1
Tumors were measured twice each week using calipers. Each animal was euthanized when its tumor reached the predetermined endpoint size of 1000 mm^3, or on the final day of the study (Day 62), whichever came first. The time to endpoint (TTE) for each mouse was calculated from the following equation: […]
where b is the intercept and m is the slope of the line obtained by linear regression of a log-transformed tumor growth data set. The data set was comprised of the first observation that exceeded the study endpoint volume and the three consecutive observations that immediately preceded the attainment of the endpoint volume.
Treatment outcome was determined from tumor growth delay (TGD), which is defined as the increase in the median time to endpoint (TTE) in a treatment group compared to the control group:
where: • T=median TTE for a treatment group, • C=median TTE for the control group (Group 1)
Treatment may cause partial regression (PR) or complete regression (CR) of the tumor in an animal. In a PR response, the tumor volume is 50% or less of its Day 1 volume for three consecutive measurements during the course of the study, and equal to or greater than 13.5 mm^3 for one or more of these three measurements. In a CR response, the tumor volume is less than 13.5 mm^3 for three consecutive measurements during the course of the study. An animal with a CR response at the termination of a study is additionally classified as a long-term tumor-free survivor (LTTFS). […]

The structures appear in SMILES notation.

As for `N.N.O=C([O-])C1(C(=O)[O-])CCC1.[Pt+2]` [carboplatin, Carboplatin, reference compound], the “mean HCT values of Group 7 compared to Group 9” value in test [1] (Days 13, 21, and 23) is “slightly lower”. In addition, the mean reticulocyte values result in test [1] (Day 10 (near the expected nadir)) is listed as “negligible”; in test [1] (Day 13) it was “higher than in control mice”; in test [1] (Day 21 after the second cycle of treatment), “low”. The “mean hematocrit (HCT) values compared to untreated mice (Group 6)” value in test [1] (Groups 7-9) is given as “lower mean HCT values than controls”. Further, the “mean platelet counts compared to untreated Group 6 controls” value in test [1] (Groups 7-9, regimens as Groups 2-4, Days 10, 13, 21, and 23) is recorded as “lower mean platelet counts at all time points”. Further, the regression responses entry in test [2] (Group 2) is “No regression responses were recorded”. The “number of 62-day survivors” value in test [2] (Group 2, n=10) stood at 1. In test [2] (Group 2, one animal), the “tumor volume of the animal remaining in the study on Day 62” value was found to be 600 mm^3. Also, the “Tumor Burden Median” value in test [2] (Group 2: carboplatin 60 mg/kg i.p. Days 1, 2, 12, 13, (n animals) in brackets) was 600(1). The “TGD (tumor growth delay)” value in test [2] (Groups 2-4, relative to untreated Group 1, carboplatin 60 mg/kg i.p. Days 1, 2, 12, 13, TPO mimetic peptide compound 0.2 mg/kg i.v. Days 2, 13) was determined as 22.8 days. Also, the “% Tumor Growth Delay” value in test [2] (HT-29 xenografts, athymic nude mice, n=10, carboplatin 60 mg/kg i.p. Days 1, 2, 12, 13, TPO mimetic peptide compound 0.2 mg/kg i.v. Days 2, 13, Groups 2-4, vs untreated Group 1) was found to be 92%. The “Median TTE” value in test [2] (HT-29 xenografts, athymic nude mice, n=10, carboplatin 60 mg/kg i.p. Days 1, 2, 12, 13, TPO mimetic peptide compound 0.2 mg/kg i.v. Days 2, 13, Groups 2-4, endpoint 1000 mm^3) was determined as 47.6 days.
